DC50, Dmax and IC50 data for seven molecules are collected here from US20260042771A1, “HETEROCYCLIC COMPOUND FOR INDUCING DEGRADATION OF G12V MUTANT KRAS PROTEIN” (Astellas Pharma Inc., priority 2022, published 2026).

Assay [1] concerns the target T1, RAS G12V (Homo sapiens, UniProt P01116, G12V).
T1 construct: host or cells: PA-TU-8902 human pancreatic cancer cells
Put plainly: Test Example 1: RAS G12V degradation activity by Cell ELISA in PA-TU-8902. It is filed as cell-based. To be noted: for DC50: 50% degradation concentration of RAS G12V, PA-TU-8902 cells, 24 hours, Cell ELISA, corrected with β-actin; for Dmax: PaTu 8902, degradation rate at the most active concentration, DMSO = 0%, Example No. 7 at 3 μM = 100%, PA-TU-8902, 24 hours. As to the method:
Test Example 1: Evaluation of RAS G12V Degradation Activity on Human KRAS G12V Mutant-Positive Pancreatic Cancer Line PA-TU-8902
The RAS G12V degradation activity of test compounds was evaluated by measuring the expression levels of RAS G12V by Cell ELISA.
PA-TU-8902 cells (DSMZ, ACC 179) were seeded at 36 μL per well on 384-well plates (from Greiner bio-one) to give 1.5×10^4 cells per well. As for the cell culture conditions, DMEM medium (from Sigma-Aldrich) containing 10% fetal bovine serum (from Cytiva) was used in the presence of 5% CO2 at 37° C.
The next day, the test compounds (10 points having final concentrations in the range of 3 μM to 0.1 nM), the compound of Example No. 7 having a final concentration of 3 μM as a positive control and dimethyl sulfoxide (DMSO), which was the solvent for the test compounds, as a negative control were diluted 100-fold with a fresh medium and were added at 4 μL per well. The cells were cultured for 24 hours.
The next day, the culture supernatant was removed, and 4% paraformaldehyde phosphate buffer (from FUJIFILM Wako Pure Chemical Corporation) was added at 20 μL per well. The plates were allowed to stand for 30 minutes at room temperature to thus immobilize the cells. Then, the supernatant was removed, and 0.1% Triton X-100 (from Amersham Biosciences)-containing Phosphate buffered saline (PBS) was added at 20 μL per well. After allowing to stand at room temperature for 10 minutes, the supernatant was removed. PBS was added at 25 μL per well, and the supernatant was removed to thus wash each well. The washing was performed twice in total. Subsequent washing operations were performed in the same manner. Next, the supernatant was removed, and 0.5% sodium dodecyl sulfate (SDS; from ThermoFisher Scientific)-containing PBS was added at 20 μL per well. After allowing to stand at room temperature for 10 minutes, the supernatant was removed by centrifugation of the plates. After washing with PBS, the supernatant was removed by centrifugation, and blocking solution (PVDF Blocking Reagent for Can Get Signal [from TOYOBO Co., Ltd.]) was added at 20 μL per well. After allowing to stand for 30 minutes at room temperature, the supernatant was removed by centrifugation and a solution obtained by diluting, as primary antibodies, anti-Ras (G12V Mutant Specific) antibody (Ras (G12V Mutant Specific) (D2H12) Rabbit mAb; from Cell Signaling Technology; 500-fold diluted) and […] (Anti-beta Actin antibody; from Abcam; 5,000-fold diluted) with Can Get Signal Solution 2 (from TOYOBO Co., Ltd.) was added at 15 μL per well. The plates were allowed to stand overnight at 4° C.
The next day, the supernatant was removed by centrifugation and washed with PBS. The supernatant was removed by centrifugation, a solution obtained by diluting, as secondary antibodies, anti-rabbit IgG antibody (IRDye 800CW Goat anti-Rabbit IgG; from LI-COR Biosciences) and anti-mouse IgG antibody (IRDye 680RD Donkey anti-Mouse IgG; from LI-COR Biosciences) 1,000-fold with Can Get Signal Solution 2 was added at 15 μL per well. After allowing to stand at room temperature for 1 hour, the supernatant was removed by centrifugation and washed with PBS. After removing the supernatant, the plates were dried with air at room temperature for 2 hours or more, and the 700 nm and 800 nm fluorescent signals were measured with Aerius (from LI-COR Biosciences).
The degradation rate of RAS G12V was calculated with the RAS G12V signaling value at the time of addition of DMSO taken as 0%, which was corrected with the signaling value of β-actin, and with the RAS G12V signaling value at the time of addition of the compound of Example No. 7 at a final concentration of 3 μM taken as 100%. […]
A general note: In an ELISA, binding on a coated surface is turned into a signal by an enzyme label.

Assay [2] has as its system human KRAS G12V mutant-positive pancreatic cancer line PA-TU-8902. Put plainly: Test Example 3: non-anchorage-dependent cell growth inhibition, spheroid 3D culture. The format is cell-based. The note with it: PaTu 8902, 144 h, PA-TU-8902 spheroid 3D culture, 6 days, CellTiter Glo 2.0. As to the method:
Test Example 3: Evaluation of Non-Anchorage-Dependent Cell Growth Inhibitory Effect on Human KRAS G12V Mutant-Positive Pancreatic Cancer Line PA-TU-8902
The non-anchorage-dependent cell growth inhibitory effect of test compounds was evaluated by spheroid 3D cell culture.
PA-TU-8902 cells were seeded on low-cell-adhesive round bottom 384-well plates (PrimeSurface: from Sumitomo Bakelite) at 36 µL/well to give 5×10^2 cells per well. The cell culture was performed under the same conditions as in Test Example 1.
The next day, the test compounds (8 to 10 points having final concentrations in the range of 3 μM to 0.1 nM) and DMSO, which was the solvent for the test compounds, as a negative control were diluted 100-fold with a fresh medium and were added at 4 μL per well. After culturing in the presence of 5% CO2 at 37° C. for 6 days, CellTiter Glo 2.0 (from Promega) was added at 20 μL per well. After stirring with a plate mixer (from FINEPCR) at normal temperature for 1 hour, the luminescent signals were measured with ARVO X3 (from PerkinElmer).
With the signaling value in treatment with DMSO taken as 0% inhibition and with the signaling value in the medium alone without cells taken as 100% inhibition, the 50% inhibitory concentration values (IC50) were calculated by Sigmoid-Emax nonlinear regression analysis. The inhibition rate at 30 nM was calculated for Example No. 17.

Each structure is given as a SMILES string.

T1 sequence (P01116 1-188 isoform P01116-2 G12V): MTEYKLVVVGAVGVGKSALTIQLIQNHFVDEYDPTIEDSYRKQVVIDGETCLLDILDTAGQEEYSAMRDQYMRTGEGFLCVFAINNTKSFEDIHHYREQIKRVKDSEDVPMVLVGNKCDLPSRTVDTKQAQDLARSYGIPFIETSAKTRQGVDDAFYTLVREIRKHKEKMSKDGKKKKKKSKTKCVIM

Usually DC50 stands for the concentration giving 50% degradation. A word on the Dmax: it is the largest share of the target that was removed. A lower Dmax goes with shallow degradation. As usually defined, the IC50 is the concentration needed to halve the response being measured. The low end stands for greater potency in that assay, the high end for weaker potency in that assay. In assay [1], `CO[C@@H](C)COc1nc(N2CC[C@H]2C(N)=O)c2cc(C3CC3)c(-c3c(C)c(F)cc4[nH]ncc34)c(OCc3ccc(CN4CCN(Cc5ccc6c(N7CCC(=O)NC7=O)nn(C)c6c5)CC4=O)cc3)c2n1` (atropisomer, axis not shown) [Example 20, (2S)-1-{(7 M)-6-cyclopropyl-8-({4-[(4-{[3-(2,4-dioxo-1,3-diazinan-1-yl)-1-methyl-1H-indazol-6-yl]methyl)-2-oxopiperazin-1-yl)methyl]phenyl}methoxy)-7-(6-fluoro-5-methyl-1H-indazol-4-yl)-2-[(2S)-2-methoxypropoxy]quinazolin-4-yl)azetidine-2-carboxyamide] came in with a DC50 of 29 nM and a Dmax of 85%. The molecule further displayed an IC50 in assay [2] of 85 nM.

On to `CO[C@@H](C)COc1nc(N2CC(C#N)C2)c2cc(C3CC3)c(-c3c(C)c(F)cc4[nH]ncc34)c(OCc3ccc(C(=O)N4CC[C@H](CN(C)Cc5ccc6c(N7CCC(=O)NC7=O)nn(C)c6c5)C4)cc3)c2n1` (atropisomer, axis not shown) [Example 15], for which, in assay [1], it took 92 nM to reach half-maximal degradation (DC50) and the maximal degradation (Dmax) worked out at 85%. Also, the half-inhibitory concentration (IC50) in assay [2] came out at 139 nM.

With `CO[C@@H](C)COc1cc(OC2CN(C(=O)NCCN(C)C)C2)c2cc(C3CC3)c(-c3c(C)c(F)cc4[nH]ncc34)c(OCc3ccc(C(=O)N4CCN(Cc5ccc6c(N7CCC(=O)NC7=O)nn(C)c6c5)C[C@@H]4C)cc3)c2n1` (atropisomer, axis not shown) [Example 18], in assay [1], half-maximal degradation (DC50) was put at 65 nM and the maximal degradation (Dmax) was 78%. The molecule also came in with an IC50 in assay [2] of 149 nM.

In assay [1], `CO[C@@H](C)COc1nc(N2CC[C@H]2C(N)=O)c2cc(C3CC3)c(-c3c(C)c(F)cc4[nH]ncc34)c(OCc3ccc(C(=O)N4CCN(Cc5ccc6c(N7CCC(=O)NC7=O)nn(C)c6c5)C[C@@H]4C)cc3)c2n1` (atropisomer, axis not shown) [Example 5, (2S)-1-((7 M)-6-cyclopropyl-8-((4-[(2S)-4-{[3-(2,4-dioxo-1,3-diazinan-1-yl)-1-methyl-1H-indazol-6-yl]methyl)-2-methylpiperazine-1-carbonyl]phenyl)methoxy)-7-(6-fluoro-5-methyl-1H-indazol-4-yl)-2-[(2S)-2-methoxypropoxy]quinazolin-4-yl}azetidine-2-carboxyamide] returned a half-maximal degradation concentration (DC50) of 5 nM and a Dmax of 97%. In assay [2], this molecule came in with an IC50 of 15 nM.

In assay [1], `CO[C@@H](C)COc1nc(N2CC(C#N)C2)c2cc(C3CC3)c(-c3c(C)c(F)cc4[nH]ncc34)c(OCc3ccc(C(=O)N4CCN(Cc5ccc6c(N7CCC(=O)NC7=O)nn(C)c6c5)CC4)cc3)c2n1` (atropisomer, axis not shown) [Example 12] registered a DC50 of 13 nM and a maximal degradation (Dmax) of 87%. Moreover, the 50% inhibitory concentration (IC50) in assay [2] is 33 nM.

In the case of `CO[C@@H](C)COc1nc(OC2CN(C(=O)NCCN(C)C)C2)c2cc(C3CC3)c(-c3c(C)c(F)cc4[nH]ncc34)c(OCc3ccc(C(=O)N4CCN(Cc5ccc6c(c5)n(C)c(=O)n6C5CCC(=O)NC5=O)C[C@@H]4C)cc3)c2n1` (stereo partly drawn) [Example 1], in assay [1], half-maximal degradation (DC50) was put at 6 nM and the greatest degradation seen (Dmax) came to 77%. For the same molecule, half-maximal inhibition in assay [2] (IC50) required 42 nM.

Turning to `CO[C@@H](C)COc1nc(N2CC(C#N)C2)c2cc(C3CC3)c(-c3c(C)c(F)cc4[nH]ncc34)c(OCc3ccc(C(=O)N4CCN(Cc5ccc6c(N7CCC(=O)NC7=O)nn(C)c6c5)C[C@@H]4C)cc3)c2n1` (atropisomer, axis not shown) [Example 14], in assay [1], half-maximal degradation (DC50) was put at 4 nM and the Dmax was 100%. The molecule also had an IC50 in assay [2] of 12 nM.
